Target: T1, RORγ (Homo sapiens, UniProt P51449)
T1 sequence (P51449 269-508 limits assumed): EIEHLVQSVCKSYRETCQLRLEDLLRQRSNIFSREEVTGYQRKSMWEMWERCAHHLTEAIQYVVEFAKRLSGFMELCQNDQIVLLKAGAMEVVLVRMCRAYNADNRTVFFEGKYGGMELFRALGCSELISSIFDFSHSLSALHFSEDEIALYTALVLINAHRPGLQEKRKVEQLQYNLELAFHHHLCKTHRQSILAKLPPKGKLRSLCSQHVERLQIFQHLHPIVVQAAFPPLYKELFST
Assay: RORγ GAL4 reporter gene assay
Conditions: mean pIC50, inhibition of RORγ (GAL4-RORγ-LBD) in 293FT cells, luciferase readout, overnight incubation

| SMILES | IC50 |
| --- | --- |
| O=C(Cc1cccc(S(=O)(=O)NC2CC2)c1)Nc1ccc(C(O)(C(F)(F)F)C(F)(F)F)c(F)c1 [Example 38, 2-(3-(N-cyclopropylsulfamoyl)phenyl)-N-(3-fluoro-4-(1,1,1,3,3,3-hexafluoro-2-hydroxypropan-2-yl)phenyl)acetamide] | ≤ 1 µM |
| CCCC(O)(c1ccc(NC(=O)Cc2ccc(S(=O)(=O)NC3CC3)cc2)cc1)C(F)(F)F (centres unmarked) [Example 80, 2-(4-(N-cyclopropylsulfamoyl)phenyl)-N-(4-(1,1,1-trifluoro-2-hydroxypentan-2-yl)phenyl)acetamide] | ≤ 1 µM |
| O=C(Cc1ccc(S(=O)(=O)NC2CC2)cc1)Nc1ccc(C(O)(C(F)(F)F)C(F)(F)F)c(Cl)c1 [Example 89, N-(3-chloro-4-(1,1,1,3,3,3-hexafluoro-2-hydroxypropan-2-yl)phenyl)-2-(4-(N-cyclopropylsulfamoyl)phenyl)acetamide] | ≤ 1 µM |
| CCS(=O)(=O)c1ccc(CC(=O)Nc2ccc(C(O)(CC3CCCCC3)C(F)(F)F)cc2)cc1 (centres unmarked) [Example 74, N-(4-(3-cyclohexyl-1,1,1-trifluoro-2-hydroxypropan-2-yl)phenyl)-2-(4-(ethylsulfonyl)phenyl)acetamide] | ≤ 1 µM |
| CCCS(=O)(=O)c1ccc(CC(=O)Nc2ccc(C(O)(C(F)(F)F)C(F)(F)F)cc2)cc1 [Example 4, N-(4-(1,1,1,3,3,3-hexafluoro-2-hydroxypropan-2-yl)phenyl)-2-(4-(propylsulfonyl)phenyl)acetamide] | ≤ 1 µM |
| Cc1cc(NC(=O)Cc2cccc(S(=O)(=O)NC3CC3)c2)ccc1C(O)(C(F)(F)F)C(F)(F)F [Example 36, 2-(3-(N-cyclopropylsulfamoyl)phenyl)-N-(4-(1,1,1,3,3,3-hexafluoro-2-hydroxypropan-2-yl)-3-methylphenyl)acetamide] | ≤ 1 µM |
| O=C(Nc1ccc(C(O)(C(F)(F)F)C(F)(F)F)cc1)C(=O)c1ccc(S(=O)(=O)CC2CC2)cc1 [Example 102, 2-(4-((cyclopropylmethyl)sulfonyl)phenyl)-N-(4-(1,1,1,3,3,3-hexafluoro-2-hydroxypropan-2-yl)phenyl)-2-oxoacetamide] | ≤ 1 µM |
| CCS(=O)(=O)c1ccc(CC(=O)Nc2c(C)cc(C(O)(C(F)(F)F)C(F)(F)F)cc2C)cc1 [Example 23, 2-(4-(ethylsulfonyl)phenyl)-N-(4-(1,1,1,3,3,3-hexafluoro-2-hydroxypropan-2-yl)-2,6-dimethylphenyl)acetamide] | ≤ 1 µM |
| CCS(=O)(=O)c1ccc(CC(=O)Nc2ccc(C(O)(C(F)(F)F)C(F)(F)F)cc2)cc1F [Example 42, 2-(4-(ethylsulfonyl)-3-fluorophenyl)-N-(4-(1,1,1,3,3,3-hexafluoro-2-hydroxypropan-2-yl)phenyl)acetamide] | ≤ 1 µM |
| O=C(Cc1ccc(S(=O)(=O)CC2CC2)cc1)Nc1ccc(C(OCCC2CC2)(C(F)(F)F)C(F)(F)F)cc1 [Example 58, N-(4-(2-(2-cyclopropylethoxy)-1,1,1,3,3,3-hexafluoropropan-2-yl)phenyl)-2-(4-((cyclopropylmethyl)sulfonyl)phenyl)acetamide] | ≤ 1 µM |
| CCCC(O)(c1ccc(NC(=O)Cc2ccc(S(=O)(=O)CC)cc2)cc1)C(F)(F)F (centres unmarked) [Example 63, 2-(4-(ethylsulfonyl)phenyl)-N-(4-(1,1,1-trifluoro-2-hydroxypentan-2-yl)phenyl)acetamide] | ≤ 1 µM |
| CC(O)(c1ccc(NC(=O)Cc2ccc(S(=O)(=O)NC3CC3)cc2)cc1)C(F)(F)F (centres unmarked) [Example 78, 2-(4-(N-cyclopropylsulfamoyl)phenyl)-N-(4-(1,1,1-trifluoro-2-hydroxypropan-2-yl)phenyl)acetamide] | ≤ 1 µM |
| O=C(Cc1ccc(S(=O)(=O)NC2CC2)cc1)Nc1ccc(C(O)(CC2CCCC2)C(F)(F)F)cc1 (centres unmarked) [Example 99, N-(4-(3-cyclopentyl-1,1,1-trifluoro-2-hydroxypropan-2-yl)phenyl)-2-(4-(N-cyclopropylsulfamoyl)phenyl)acetamide] | ≤ 1 µM |
| CCS(=O)(=O)c1ccc(CC(=O)Nc2ccc(C(O)(C(F)(F)F)C(F)(F)F)cc2C)cc1 [Example 31, 2-(4-(ethylsulfonyl)phenyl)-N-(4-(1,1,1,3,3,3-hexafluoro-2-hydroxypropan-2-yl)-2-methylphenyl)acetamide] | ≤ 1 µM |
| O=C(Cc1ccc(S(=O)(=O)NC2CC2)cc1)Nc1ccc(C(O)(C2CCCC2)C(F)(F)F)cc1 (centres unmarked) [Example 90, N-(4-(1-cyclopentyl-2,2,2-trifluoro-1-hydroxyethyl)phenyl)-2-(4-(N-cyclopropylsulfamoyl)phenyl)acetamide] | ≤ 1 µM |
| CCS(=O)(=O)c1ccc(CC(=O)Nc2ccc(C(O)(C(F)(F)F)C(F)(F)F)c(F)c2C)cc1 [Example 15, 2-(4-(ethylsulfonyl)phenyl)-N-(3-fluoro-4-(1,1,1,3,3,3-hexafluoro-2-hydroxypropan-2-yl)-2-methylphenyl)acetamide] | ≤ 1 µM |
| O=C(Cc1ccc(S(=O)(=O)NC2CC2)cc1)Nc1ccc(C(O)(C(F)(F)F)C(F)(F)F)cc1 [Example 9, 2-(4-(N-cyclopropylsulfamoyl)phenyl)-N-(4-(1,1,1,3,3,3-hexafluoro-2-hydroxypropan-2-yl)phenyl)acetamide] | ≤ 0.1 µM |
| CCS(=O)(=O)c1ccc(CC(=O)Nc2ccc(C(O)(C3CCCC3)C(F)(F)F)cc2)cc1 (centres unmarked) [Example 85, N-(4-(1-cyclopentyl-2,2,2-trifluoro-1-hydroxyethyl)phenyl)-2-(4-(ethylsulfonyl)phenyl)acetamide] | ≤ 1 µM |

Now from value to molecule:

| IC50 | SMILES |
| --- | --- |
| ≤ 0.1 µM | CC(C)CCC(O)(c1ccc(NC(=O)Cc2ccc(S(=O)(=O)CC3CC3)cc2)cc1)C(F)(F)F (centres unmarked) [Example 104, 2-(4-((cyclopropylmethyl)sulfonyl)phenyl)-N-(4-(1,1,1-trifluoro-2-hydroxy-5-methylhexan-2-yl)phenyl)acetamide] |
| ≤ 0.1 µM | O=C(Cc1ccc(S(=O)(=O)CC2CC2)cc1)Nc1ccc(C(O)(CC2CCCCC2)C(F)(F)F)cc1 (centres unmarked) [Example 69, N-(4-(3-cyclohexyl-1,1,1-trifluoro-2-hydroxypropan-2-yl)phenyl)-2-(4-((cyclopropylmethyl)sulfonyl)phenyl)acetamide] |
| ≤ 0.1 µM | CC(C(=O)Nc1ccc(C(O)(C(F)(F)F)C(F)(F)F)cc1)c1ccc(S(=O)(=O)CC2CC2)cc1 (centres unmarked) [Example 109, 2-(4-((cyclopropylmethyl)sulfonyl)phenyl)-N-(4-(1,1,1,3,3,3-hexafluoro-2-hydroxypropan-2-yl)phenyl)propanamide] |
| ≤ 0.01 µM | O=C(Cc1ccc(S(=O)(=O)CC2CC2)cc1)Nc1ccc(C(O)(C(F)(F)F)C(F)(F)F)cc1 [Example 37, 2-(4-((cyclopropylmethyl)sulfonyl)phenyl)-N-(4-(1,1,1,3,3,3-hexafluoro-2-hydroxypropan-2-yl)phenyl)acetamide] |
| ≤ 0.1 µM | COc1cc(C(O)(C(F)(F)F)C(F)(F)F)ccc1NC(=O)Cc1ccc(S(=O)(=O)CC2CC2)cc1 [Example 55, 2-(4-((cyclopropylmethyl)sulfonyl)phenyl)-N-(4-(1,1,1,3,3,3-hexafluoro-2-hydroxypropan-2-yl)-2-methoxyphenyl)acetamide] |
| ≤ 0.1 µM | CCS(=O)(=O)c1ccc(CC(=O)Nc2ccc(C(O)(CC(C)(C)C)C(F)(F)F)cc2)cc1 (centres unmarked) [Example 96, 2-(4-(ethylsulfonyl)phenyl)-N-(4-(1,1,1-trifluoro-2-hydroxy-4,4-dimethylpentan-2-yl)phenyl)acetamide] |
| ≤ 0.1 µM | Cc1cc(S(=O)(=O)CC2CC2)ccc1CC(=O)Nc1ccc(C(O)(C(F)(F)F)C(F)(F)F)cc1 [Example 93, 2-(4-((cyclopropylmethyl)sulfonyl)-2-methylphenyl)-N-(4-(1,1,1,3,3,3-hexafluoro-2-hydroxypropan-2-yl)phenyl)acetamide] |
| ≤ 0.01 µM | O=C(Cc1ccc(S(=O)(=O)CC2CC2)cc1)Nc1ccc(C(O)(C(F)(F)F)C(F)(F)F)c(F)c1 [Example 45, 2-(4-((cyclopropylmethyl)sulfonyl)phenyl)-N-(3-fluoro-4-(1,1,1,3,3,3-hexafluoro-2-hydroxypropan-2-yl)phenyl)acetamide] |
| ≤ 0.1 µM | COC(c1ccc(NC(=O)Cc2ccc(S(=O)(=O)CC3CC3)cc2)cc1)(C(F)(F)F)C(F)(F)F [Example 54, 2-(4-((cyclopropylmethyl)sulfonyl)phenyl)-N-(4-(1,1,1,3,3,3-hexafluoro-2-methoxypropan-2-yl)phenyl)acetamide] |
| ≤ 0.1 µM | CC(C)CCCC(O)(c1ccc(NC(=O)Cc2ccc(S(=O)(=O)CC3CC3)cc2)cc1)C(F)(F)F (centres unmarked) [Example 108, 2-(4-((cyclopropylmethyl)sulfonyl)phenyl)-N-(4-(1,1,1-trifluoro-2-hydroxy-6-methylheptan-2-yl)phenyl)acetamide] |
| ≤ 0.01 µM | CC(C)(C)CC(O)(c1ccc(NC(=O)Cc2ccc(S(=O)(=O)CC3CC3)cc2)cc1)C(F)(F)F (centres unmarked) [Example 82, 2-(4-((cyclopropylmethyl)sulfonyl)phenyl)-N-(4-(1,1,1-trifluoro-2-hydroxy-4,4-dimethylpentan-2-yl)phenyl)acetamide] |
| ≤ 0.1 µM | CC(C)CC(O)(c1ccc(NC(=O)Cc2ccc(S(=O)(=O)NC3CC3)cc2)cc1)C(F)(F)F (centres unmarked) [Example 76, 2-(4-(N-cyclopropylsulfamoyl)phenyl)-N-(4-(1,1,1-trifluoro-2-hydroxy-4-methylpentan-2-yl)phenyl)acetamide] |
| ≤ 0.1 µM | O=C(Cc1ccc(S(=O)(=O)CC2CC2)cc1)Nc1ccc(C(O)(C(F)(F)F)C(F)(F)F)cc1Cl [Example 98, N-(2-chloro-4-(1,1,1,3,3,3-hexafluoro-2-hydroxypropan-2-yl)phenyl)-2-(4-((cyclopropylmethyl)sulfonyl)phenyl)acetamide] |
| ≤ 0.1 µM | O=C(Cc1ccc(S(=O)(=O)CC2CC2)cc1)Nc1ccc(C(O)(Cc2ccccc2)C(F)(F)F)cc1 (centres unmarked) [Example 87, 2-(4-cyclopropylmethanesulfonylphenyl)-N-[4-(1,1,1-trifluoro-2-hydroxy-3-phenylpropan-2-yl)phenyl]acetamide] |

Reference: US9738600B2, “ROR gamma (RORγ) modulators” (LEAD PHARMA CEL MODELS IP B.V., priority 2013, dated 2017)
